Converted amounts (≈) assume the structure as drawn.
What was measured:
[1] = Antiproliferative activity against human NCM460 cells assessed as reduction in cell viability measured after 48 to 72 hrs by MTT assay; assay type: toxicity, cell-based
[2] = Antiproliferative activity against human L02 cells assessed as reduction in cell viability measured after 48 to 72 hrs by MTT assay; assay type: toxicity, cell-based
Bel-7402 [3] = assay: Antiproliferative activity against human Bel-7402 cells assessed as reduction in cell viability measured after 48 to 72 hrs by MTT assay; assay type: functional, cell-based
HepG2 [4] = assay: Antiproliferative activity against human HepG2 cells assessed as reduction in cell viability at 20 uM measured after 48 hrs by MTT assay relative to control; assay type: functional
HepG2 [5] = assay: Antitumor activity against human HepG2 cells xenografted in orthotopic mouse model assessed as tumor growth inhibition at 15 mg/kg, iv administered twice daily for 18 days relative to control; assay type: functional; settings: HepG2, 432 h, time 18 day, read-out: TGI
HepG2 [6] = assay: Antiproliferative activity against human HepG2 cells assessed as reduction in cell viability measured after 48 to 72 hrs by MTT assay; assay type: functional, cell-based
HepG2 [7] = assay: Antitumor activity against human HepG2 cells xenografted in orthotopic mouse model assessed as average number of tumor at 15 mg/kg, iv administered twice daily for 18 days (reference value: 49+/3.6 mM); assay type: functional; settings: time 18 day
[8] = Selectivity index, ratio of IC50 for human L02 cells to IC50 for human HepG2 cells; assay type: toxicity; settings: L02 cells and HepG2 cells, read-out: Ratio IC50
HepG2 [9] = assay: Antitumor activity against human HepG2 cells xenografted in orthotopic mouse model assessed as average number of tumor at 60 mg/kg, iv administered twice daily for 18 days in presence of 5-Fluorouracil (reference value: 49+/3.6 mM); assay type: functional; settings: time 18 day
[10] = Toxicity in orthotopic mouse assessed as effect on body weight at 60 mg/kg, iv administered twice daily for 18 days; assay type: organism-based; settings: in vivo, 432 h, time 18 day
Bel-7402 [11] = assay: Antiproliferative activity against human Bel-7402 cells assessed as reduction in cell viability at 20 uM measured after 48 hrs by MTT assay relative to control; assay type: functional
[12] = (§1) Drug metabolism in rat liver homogenate assessed as formation of (2S)-2-[[[(2R,3S,5R)-3-[(2S)-1-[(2S)-2-(tert-butoxycarbonylamino)-3-methyl-butanoyl]pyrrolidine-2-carbonyl]oxy-5-(5-fluoro-2,4-dioxo-pyrimidin-1-yl)tetrahydrofuran-2-yl]methoxy-hydroxy-phosphoryl]amino]propanoic acid measured after 120 mins; assay type: ADME, tissue-based; settings: tissue homogenate, 2 h
[13] = Toxicity in orthotopic mouse assessed as effect on heart at 60 mg/kg, iv administered twice daily for 18 days by H and E staining based analysis; assay type: organism-based; settings: in vivo, 432 h, time 18 day
[14] = Toxicity in orthotopic mouse assessed as effect on kidney at 60 mg/kg, iv administered twice daily for 18 days by H and E staining based analysis; assay type: organism-based; settings: in vivo, 432 h, time 18 day
[15] = Metabolic stability in rat plasma assessed as half life at 1 mg/ml measured upto 72 hrs by HPLC analysis; assay type: ADME, cell-free
[16] = Solubility of the compound in 5% DMSO/10% PEG300/85% saline at 25 degreeC by HPLC analysis; assay type: physicochemical
[17] = Solubility of the compound in 5% DMSO/95% saline at 25 degreeC by HPLC analysis; assay type: physicochemical
[18] = Solubility of the compound in 5% PBS/95% saline at 25 degreeC by HPLC analysis; assay type: physicochemical
[19] = Metabolic stability in rat liver homogenates assessed as half life at 1 mg/ml measured after 4 hrs by HPLC analysis; assay type: ADME, tissue-based
HepG2 [20] = assay: Antitumor activity against human HepG2 cells xenografted in orthotopic mouse model assessed as tumor growth inhibition at 60 mg/kg, iv administered twice daily for 18 days in presence of 5-Fluorouracil relative to control; assay type: functional; settings: HepG2, 432 h, time 18 day, read-out: TGI
[21] = Solubility of the compound in 5% DMSO/8% Tween80/87% saline at 25 degreeC by HPLC analysis; assay type: physicochemical
[22] = Toxicity in orthotopic mouse assessed as effect on lung at 60 mg/kg, iv administered twice daily for 18 days by H and E staining based analysis; assay type: organism-based; settings: in vivo, 432 h, time 18 day
[23] = Toxicity in orthotopic mouse assessed as effect on liver at 60 mg/kg, iv administered twice daily for 18 days by H and E staining based analysis; assay type: organism-based; settings: in vivo, 432 h, time 18 day
[24] = Selectivity index, ratio of IC50 for human L02 cells to IC50 for human Bel-7402 cells; assay type: toxicity; settings: L02 cells and Bel-7402 cells, read-out: Ratio IC50
[25] = Solubility of the compound in 100% saline at 25 degreeC by HPLC analysis; assay type: physicochemical
[26] = Solubility of the compound in 5% PEG300/95% saline at 25 degreeC by HPLC analysis; assay type: physicochemical
[27] = Solubility of the compound in 5% DMSO/10% Tween80/85% saline at 25 degreeC by HPLC analysis; assay type: physicochemical
[28] = Toxicity in orthotopic mouse assessed as effect on drug tolerance at 60 mg/kg, iv administered twice daily for 18 days; assay type: organism-based; settings: in vivo, 432 h, time 18 day
[29] = Solubility of the compound in 2% DMSO/10% tween80/88% saline at 25 degreeC by HPLC analysis; assay type: physicochemical
[30] = Toxicity in orthotopic mouse assessed as change in liver weight at 60 mg/kg, iv administered twice daily for 18 days; assay type: organism-based; settings: in vivo, 432 h, time 18 day
[31] = Toxicity in orthotopic mouse assessed as effect on spleen at 60 mg/kg, iv administered twice daily for 18 days by H and E staining based analysis; assay type: organism-based; settings: in vivo, 432 h, time 18 day
[32] = Solubility of the compound in 5% DMSO/10% cremophor EL/85% saline at 25 degreeC by HPLC analysis; assay type: physicochemical
[33] = as §1, with “20” for “120”; assay type: ADME, tissue-based; settings: tissue homogenate
[34] = Solubility of the compound in 2% DMSO/8% tween80/90% saline at 25 degreeC by HPLC analysis; assay type: physicochemical
[35] = Metabolic stability in human plasma assessed as half life at 1 mg/ml measured upto 72 hrs by HPLC analysis; assay type: ADME, cell-free
[36] = Drug metabolism in rat liver homogenate assessed as (2S)-2-[[[(2R,3S,5R)-3-[(2S)-2-(tert-butoxycarbonylamino)propanoyl]oxy-5-(5-fluoro-2,4-dioxo-pyrimidin-1-yl)tetrahydrofuran-2-yl]methoxy-hydroxy-phosphoryl]amino]propanoic acid formation measured upto 90 mins; assay type: ADME, tissue-based; settings: tissue homogenate, 1.5 h

O=c1[nH]cc(F)c(=O)[nH]1 [FLUOROURACIL]
IC50 [1]: > 100 µM | IC50 [2]: > 100 µM | IC50 (Bel-7402 [3]): 36.5 µM | Activity (HepG2 [4]): 8.31% | inhibition in vivo at 15 mg/kg (HepG2 [5]): 0% | IC50 (HepG2 [6]): > 100 µM | Activity (HepG2 [7]): 49 mM

CC(C)OC(=O)[C@H](C)N[P@](=O)(OC[C@H]1O[C@@H](n2cc(F)c(=O)[nH]c2=O)C[C@@H]1OC(=O)[C@@H]1CCCN1C(=O)[C@@H](NC(=O)OC(C)(C)C)C(C)C)Oc1ccccc1
selectivity ratio [8]: 307 | tumour count (HepG2 [9]): 35 | Activity [10]: Non-Toxic | Activity (Bel-7402 [11]): >70% | Drug metabolism [12]: Metabolite_Detected | Activity [13]: Non-Toxic | Activity [14]: Non-Toxic | IC50 [1]: > 100 µM | half-life at 1 mg/ml [15]: > 48 h | IC50 [2]: > 100 µM | solubility [16]: < 1000 µg/mL | IC50 (Bel-7402 [3]): 0.81 µM | Activity (HepG2 [4]): 75.24% | solubility [17]: < 1000 µg/mL | solubility [18]: < 1000 µg/mL | half-life at 1 mg/ml [19]: 1.63 h | inhibition in vivo at 60 mg/kg (HepG2 [20]): 28.6% | solubility [21]: 5000 µg/mL (≈ 6.16 mM) | Activity [22]: Non-Toxic | Activity [23]: Non-Toxic | IC50 (HepG2 [6]): 0.54 µM | selectivity ratio [24]: 205 | solubility [25]: < 1000 µg/mL | solubility [26]: < 1000 µg/mL | solubility [27]: > 10000 µg/mL | Activity [28]: Non-Toxic | solubility [29]: > 10000 µg/mL | Activity [30]: Toxic | Activity [31]: Non-Toxic | solubility [32]: 5000 µg/mL (≈ 6.16 mM) | Drug metabolism [33]: Metabolite_Detected | solubility [34]: < 5000 µg/mL | half-life at 1 mg/ml [35]: > 48 h

CC(C)OC(=O)[C@H](C)N[P@](=O)(OC[C@H]1O[C@@H](n2cc(F)c(=O)[nH]c2=O)C[C@@H]1OC(=O)[C@H](C)NC(=O)OC(C)(C)C)Oc1ccccc1
selectivity ratio [8]: 310 | tumour count (HepG2 [9]): 12 | Activity [10]: Non-Toxic | Activity (Bel-7402 [11]): 82.19% | Activity [13]: Non-Toxic | Activity [14]: Non-Toxic | IC50 [1]: > 100 µM | half-life at 1 mg/ml [15]: > 48 h | IC50 [2]: > 100 µM | solubility [16]: < 1000 µg/mL | IC50 (Bel-7402 [3]): 0.79 µM | Activity (HepG2 [4]): 83.61% | solubility [17]: < 1000 µg/mL | solubility [18]: < 1000 µg/mL | half-life at 1 mg/ml [19]: 0.16 h | inhibition in vivo at 60 mg/kg (HepG2 [20]): 75.5% | solubility [21]: 5000 µg/mL (≈ 7.28 mM) | Activity [22]: Non-Toxic | Activity [23]: Non-Toxic | IC50 (HepG2 [6]): 0.42 µM | selectivity ratio [24]: 165 | solubility [25]: < 1000 µg/mL | solubility [26]: < 1000 µg/mL | solubility [27]: > 10000 µg/mL | Activity [28]: Non-Toxic | solubility [29]: > 10000 µg/mL | Activity [30]: Toxic | Activity [31]: Non-Toxic | solubility [32]: 5000 µg/mL (≈ 7.28 mM) | Drug metabolism [36]: Metabolite_Detected | solubility [34]: < 5000 µg/mL | half-life at 1 mg/ml [35]: > 48 h

Source: ChEMBL document CHEMBL5625245, “Novel ProTide prodrugs of 5-fluoro-2'-deoxyuridine for the treatment of liver cancer” (Eur J Med Chem, 2023)
